In PubChem BioAssay AID1963841 (Molecular Pharmacology Branch, DTP, NCI, 2024):

Tested on: 439559-082-T-J2-PDC spheroid viability
Assay: Anticancer human tumor 439559-082-T-J2-PDC patient-derived colon adenocarcinoma cell line growth inhibition [POLQ]
Settings: spheroids with HUVEC and MSC; for IC50: curve of first compound; for viability, T/C: stronger effect = lower value
Outline: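 Patient-derived tumour cells were co-cultured with HUVEC and mesenchymal stem cells as multicellular spheroids at 37 °C. They were treated with POLQ inhibitors (novobiocin, ART-558, RP6685) alone or combined with other agents. Top concentrations were at or near clinical Cmax (otherwise 10 microM; SN-38 at 1 microM), decreasing in half-log steps.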

[1] = second compound 0.0316 µM, first compound 0.00316 µM
[2] = second compound 0.0316 µM, first compound 0.01 µM
[3] = second compound 0.0316 µM, first compound 0.0316 µM
[4] = second compound 0.0316 µM, first compound 0.1 µM
[5] = second compound 0.0316 µM, first compound 0.316 µM
[6] = second compound 0.0316 µM, first compound 1 µM
[7] = second compound 0.1 µM, first compound 0.00316 µM
[8] = second compound 0.1 µM, first compound 0.01 µM
[9] = second compound 0.1 µM, first compound 0.0316 µM
[10] = second compound 0.1 µM, first compound 0.1 µM
[11] = second compound 0.1 µM, first compound 0.316 µM
[12] = second compound 0.1 µM, first compound 1 µM
[13] = second compound 0.316 µM, first compound 0.00316 µM
[14] = second compound 0.316 µM, first compound 0.01 µM
[15] = second compound 0.316 µM, first compound 0.0316 µM
[16] = second compound 0.316 µM, first compound 0.1 µM
[17] = second compound 0.316 µM, first compound 0.316 µM
[18] = second compound 0.316 µM, first compound 1 µM
[19] = second compound 1 µM, first compound 0.00316 µM
[20] = second compound 1 µM, first compound 0.01 µM
[21] = second compound 1 µM, first compound 0.0316 µM
[22] = second compound 1 µM, first compound 0.1 µM
[23] = second compound 1 µM, first compound 0.316 µM
[24] = second compound 1 µM, first compound 1 µM
[25] = second compound 3.16 µM, first compound 0.00316 µM
[26] = second compound 3.16 µM, first compound 0.01 µM
[27] = second compound 3.16 µM, first compound 0.0316 µM
[28] = second compound 3.16 µM, first compound 0.1 µM
[29] = second compound 3.16 µM, first compound 0.316 µM
[30] = second compound 3.16 µM, first compound 1 µM
[31] = second compound 10 µM, first compound 0.00316 µM
[32] = second compound 10 µM, first compound 0.01 µM
[33] = second compound 10 µM, first compound 0.0316 µM
[34] = second compound 10 µM, first compound 0.1 µM
[35] = second compound 10 µM, first compound 0.316 µM
[36] = second compound 10 µM, first compound 1 µM
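Further: spheroids exposed to compounds for seven days before readout.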
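Wherever viability, T/C is given: 100% = DMSO vehicle control viability.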

C=CCn1c(=O)c2cnc(Nc3ccc(N4CCN(C)CC4)cc3)nc2n1-c1cccc(C(C)(C)O)n1 + COC1C(OC(N)=O)C(O)C(Oc2ccc3c(O)c(NC(=O)c4ccc(O)c(CC=C(C)C)c4)c(=O)oc3c2C)OC1(C)C
IC50 (second compound 0.0316 µM): > 1000 nM
IC50 (second compound 0.1 µM): > 1000 nM
IC50 (second compound 0.316 µM): > 1000 nM
IC50 (second compound 1 µM): > 1000 nM
IC50 (second compound 3.16 µM): > 1000 nM
IC50 (second compound 10 µM): > 1000 nM
viability, T/C [1]: 98.7%
viability, T/C [2]: 104%
viability, T/C [3]: 102%
viability, T/C [4]: 101%
viability, T/C [5]: 96.1%
viability, T/C [6]: 80.7%
viability, T/C [7]: 112%
viability, T/C [8]: 106%
viability, T/C [9]: 102%
viability, T/C [10]: 102%
viability, T/C [11]: 91%
viability, T/C [12]: 79.1%
viability, T/C [13]: 102%
viability, T/C [14]: 102%
viability, T/C [15]: 105%
viability, T/C [16]: 101%
viability, T/C [17]: 94.5%
viability, T/C [18]: 86.3%
viability, T/C [19]: 106%
viability, T/C [20]: 104%
viability, T/C [21]: 100%
viability, T/C [22]: 97.3%
viability, T/C [23]: 94.8%
viability, T/C [24]: 76.3%
viability, T/C [25]: 101%
viability, T/C [26]: 101%
viability, T/C [27]: 97.2%
viability, T/C [28]: 94.6%
viability, T/C [29]: 102%
viability, T/C [30]: 85.6%
viability, T/C [31]: 100%
viability, T/C [32]: 93.8%
viability, T/C [33]: 97.9%
viability, T/C [34]: 109%
viability, T/C [35]: 94.8%
viability, T/C [36]: 72.2%

CCCS(=O)(=O)Nc1ccc(F)c(C(=O)c2c[nH]c3ncc(-c4ccc(Cl)cc4)cc23)c1F + COC1C(OC(N)=O)C(O)C(Oc2ccc3c(O)c(NC(=O)c4ccc(O)c(CC=C(C)C)c4)c(=O)oc3c2C)OC1(C)C
IC50 (second compound 0.0316 µM): > 10000 nM
IC50 (second compound 0.1 µM): > 10000 nM
IC50 (second compound 0.316 µM): > 10000 nM
IC50 (second compound 1 µM): > 10000 nM
IC50 (second compound 3.16 µM): > 10000 nM
IC50 (second compound 10 µM): > 10000 nM
viability, T/C [3]: 103%
viability, T/C [4]: 109%
viability, T/C [5]: 96.6%
viability, T/C [6]: 95.8%
viability, T/C (second compound 0.0316 µM, first compound 3.16 µM): 99.7%
viability, T/C (second compound 0.0316 µM, first compound 10 µM): 70%
viability, T/C [9]: 108%
viability, T/C [10]: 107%
viability, T/C [11]: 99.9%
viability, T/C [12]: 102%
viability, T/C (second compound 0.1 µM, first compound 3.16 µM): 100%
viability, T/C (second compound 0.1 µM, first compound 10 µM): 67.9%
viability, T/C [15]: 104%
viability, T/C [16]: 106%
viability, T/C [17]: 101%
viability, T/C [18]: 92.9%
viability, T/C (second compound 0.316 µM, first compound 3.16 µM): 94.2%
viability, T/C (second compound 0.316 µM, first compound 10 µM): 65.8%
viability, T/C [21]: 99.2%
viability, T/C [22]: 104%
viability, T/C [23]: 102%
viability, T/C [24]: 103%
viability, T/C (second compound 1 µM, first compound 3.16 µM): 105%
viability, T/C (second compound 1 µM, first compound 10 µM): 68.4%
viability, T/C [27]: 93.7%
viability, T/C [28]: 103%
viability, T/C [29]: 94.3%
viability, T/C [30]: 95.4%
viability, T/C (second compound 3.16 µM, first compound 3.16 µM): 93.1%
viability, T/C (second compound 3.16 µM, first compound 10 µM): 67.9%
viability, T/C [33]: 103%
viability, T/C [34]: 95.2%
viability, T/C [35]: 100%
viability, T/C [36]: 99.2%
viability, T/C (second compound 10 µM, first compound 3.16 µM): 98.3%
viability, T/C (second compound 10 µM, first compound 10 µM): 71.4%

CCc1c2c(nc3ccc(O)cc13)-c1cc3c(c(=O)n1C2)COC(=O)[C@]3(O)CC + COC1C(OC(N)=O)C(O)C(Oc2ccc3c(O)c(NC(=O)c4ccc(O)c(CC=C(C)C)c4)c(=O)oc3c2C)OC1(C)C
IC50 (second compound 0.0316 µM): 487 nM
IC50 (second compound 0.1 µM): 401 nM
IC50 (second compound 0.316 µM): 458 nM
IC50 (second compound 1 µM): 377 nM
IC50 (second compound 3.16 µM): 332 nM
IC50 (second compound 10 µM): 287 nM
viability, T/C [1]: 90.4%
viability, T/C [2]: 83.8%
viability, T/C [3]: 69.8%
viability, T/C [4]: 69.3%
viability, T/C [5]: 58.9%
viability, T/C [6]: 39%
viability, T/C [7]: 97.3%
viability, T/C [8]: 84.3%
viability, T/C [9]: 70.7%
viability, T/C [10]: 66.7%
viability, T/C [11]: 57.7%
viability, T/C [12]: 36.6%
viability, T/C [13]: 98.5%
viability, T/C [14]: 92.2%
viability, T/C [15]: 73.1%
viability, T/C [16]: 67.9%
viability, T/C [17]: 58.6%
viability, T/C [18]: 38.5%
viability, T/C [19]: 95.8%
viability, T/C [20]: 83.7%
viability, T/C [21]: 65.4%
viability, T/C [22]: 63%
viability, T/C [23]: 59.6%
viability, T/C [24]: 36.8%
viability, T/C [25]: 90.5%
viability, T/C [26]: 81.3%
viability, T/C [27]: 71.8%
viability, T/C [28]: 62%
viability, T/C [29]: 52.7%
viability, T/C [30]: 36.8%
viability, T/C [31]: 80.8%
viability, T/C [32]: 82%
viability, T/C [33]: 64.6%
viability, T/C [34]: 61.5%
viability, T/C [35]: 53.1%
viability, T/C [36]: 28.3%
